The text below walks through data of patent US12594276B2, “Inhibitors of human immunodeficiency virus replication” (ViiV Healthcare UK (No.5) Limited, priority 2024, dated 2026).

pEC50: −log10 of the molar value.

Data set [1] deals with recombinant NL4-3 virus (nef section replaced with Renilla luciferase gene) in MT-2 cells. The data set is described as follows: HIV cell culture assay (antiviral activity, luciferase readout). The data set is classed as cell-based. The conditions noted are these: Renilla, NL43, MT-2 cells infected for 4-5 days with recombinant NL4-3 Renilla luciferase virus. An outline of the steps:
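EC50 was derived by median-effect fitting of Renilla luciferase signal from MT-2 cells. These cells were infected for 4–5 days with NL4-3 reporter virus (nef partly replaced by luciferase; made in 293T cells) in the presence of serially diluted compound. Activity was quantified with a live-cell luciferase substrate.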

Data set [2] is described as follows: Compound cytotoxicity, XTT-based colorimetric assay. Format: cell-based. Conditions: human; uninfected MT2 cells, day 4, XTT; read-out: CC50. An outline of the steps: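 Follows the antiviral assay procedure, but with uninfected MT2 cells. On day 4, cell viability is measured by XTT-based colorimetry, giving CC50 values.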

What is called pEC50 is the EC50 on a negative log10 scale, so that one unit is a factor of ten. What is called CC50 is the concentration giving 50% cytotoxicity. Take `CS(=O)(=O)Nc1nn(CCN2CCC(F)(F)C2)c2c(-n3c([C@H](Cc4cc(F)cc(F)c4)NC(=O)Cn4nc(C(F)F)c5c4C(F)(F)[C@@H]4C[C@H]54)nc4nc(C5CCC(F)(F)CC5)ccc4c3=O)ccc(Cl)c12` (atropisomer, axis not shown; (P)) [Example 158, N-[(1S)-1-[(3P)-3-{4-chloro-1-[2-(3,3-difluoropyrrolidin-1-yl)ethyl]-3-methanesulfonamido-1H-indazol-7-yl}-7-(4,4-difluorocyclohexyl)-4-oxo-3H,4H-pyrido[2,3-d]pyrimidin-2-yl]-2-(3,5-difluorophenyl)ethyl]-2-[(2S,4R)-9-(difluoromethyl)-5,5-difluoro-7,8-diazatricyclo[4.3.0.0^2,^4]nona-1(6),8-dien-7-yl]acetamide]: in data set [1], the pEC50 is 10.96. In data set [2], the CC50 at 4 days was greater than 50 nM.

As for `Cc1cc(C2CCC(F)(F)CC2)nc2nc([C@H](Cc3cc(F)cc(F)c3)NC(=O)Cn3nc(C(F)F)c4c3C(F)(F)[C@@H]3C[C@H]43)n(-c3ccc(Cl)c4c(NS(C)(=O)=O)nn(CCN5C[C@@H](C)O[C@@H](C)C5)c34)c(=O)c12` (atropisomer, axis not shown; (P)) [Example 159, N-[(1S)-1-[(3P)-3-(4-chloro-1-{2-[(2R,6S)-2,6-dimethylmorpholin-4-yl]ethyl}-3-methanesulfonamido-1H-indazol-7-yl)-7-(4,4-difluorocyclohexyl)-5-methyl-4-oxo-3H,4H-pyrido[2,3-d]pyrimidin-2-yl]-2-(3,5-difluorophenyl)ethyl]-2-[(2S,4R)-9-(difluoromethyl)-5,5-difluoro-7,8-diazatricyclo[4.3.0.0^2,4]nona-1(6),8-dien-7-yl]acetamide], in data set [1], the pEC50 was 10.77. The CC50 at 4 days in data set [2] is greater than 50 nM.

Consider `CS(=O)(=O)Nc1nn(CCN2CC(C(F)F)C2)c2c(-n3c([C@H](Cc4cc(F)cc(F)c4)NC(=O)Cn4nc(C(F)F)c5c4C(F)(F)[C@@H]4C[C@H]54)nc4nc(C5CCC(F)(F)CC5)ccc4c3=O)ccc(Cl)c12` (atropisomer, axis not shown; (P)) [Example 160, N-[(1S)-1-[(3P)-3-(4-chloro-1-{2-[3-(difluoromethyl)azetidin-1-yl]ethyl}-3-methanesulfonamido-1H-indazol-7-yl)-7-(4,4-difluorocyclohexyl)-4-oxo-3H,4H-pyrido[2,3-d]pyrimidin-2-yl]-2-(3,5-difluorophenyl)ethyl]-2-[(2S,4R)-9-(difluoromethyl)-5,5-difluoro-7,8-diazatricyclo[4.3.0.0^2,^4]nona-1(6),8-dien-7-yl]acetamide], for which, in data set [1], the pEC50 is 10.64. Moreover, the CC50 at 4 days in data set [2] was greater than 50 nM.

`CS(=O)(=O)Nc1nn(CCN2CCCCC2)c2c(-n3c([C@H](Cc4cc(F)cc(F)c4)NC(=O)Cn4nc(C(F)F)c5c4C(F)(F)[C@@H]4C[C@H]54)nc4nc(C5CCC(F)(F)CC5)ccc4c3=O)ccc(Cl)c12` (atropisomer, axis not shown; (P)) [Example 165, N-[(1S)-1-[(3P)-3-{4-chloro-3-methanesulfonamido-1-[2-(piperidin-1-yl)ethyl]-1H-indazol-7-yl}-7-(4,4-difluorocyclohexyl)-4-oxo-3H,4H-pyrido[2,3-d]pyrimidin-2-yl]-2-(3,5-difluorophenyl)ethyl]-2-[(2S,4R)-9-(difluoromethyl)-5,5-difluoro-7,8-diazatricyclo[4.3.0.0^2,^4]nona-1(6),8-dien-7-yl]acetamide]: the pEC50 in data set [1] is 10.51. The CC50 at 4 days in data set [2] was greater than 50 nM.

Turning to `CS(=O)(=O)Nc1nn(CCN2CCC(F)CC2)c2c(-n3c([C@H](Cc4cc(F)cc(F)c4)NC(=O)Cn4nc(C(F)F)c5c4C(F)(F)[C@@H]4C[C@H]54)nc4nc(C5CCC(F)(F)CC5)ccc4c3=O)ccc(Cl)c12` (atropisomer, axis not shown; (P)) [Example 166, N-[(1S)-1-[(3P)-3-{4-chloro-1-[2-(4-fluoropiperidin-1-yl)ethyl]-3-methanesulfonamido-1H-indazol-7-yl}-7-(4,4-difluorocyclohexyl)-4-oxo-3H,4H-pyrido[2,3-d]pyrimidin-2-yl]-2-(3,5-difluorophenyl)ethyl]-2-[(2S,4R)-9-(difluoromethyl)-5,5-difluoro-7,8-diazatricyclo[4.3.0.0^2,^4]nona-1(6),8-dien-7-yl]acetamide], the pEC50 in data set [1] was 10.72. The CC50 at 4 days in data set [2] is greater than 50 nM.

On to `CC1(F)CCN(CCn2nc(NS(C)(=O)=O)c3c(Cl)ccc(-n4c([C@H](Cc5cc(F)cc(F)c5)NC(=O)Cn5nc(C(F)F)c6c5C(F)(F)[C@@H]5C[C@H]65)nc5nc(C6CCC(F)(F)CC6)ccc5c4=O)c32)CC1` (atropisomer, axis not shown; (P)) [Example 167, N-[(1S)-1-[(3P)-3-{4-chloro-1-[2-(4-fluoro-4-methylpiperidin-1-yl)ethyl]-3-methanesulfonamido-1H-indazol-7-yl}-7-(4,4-difluorocyclohexyl)-4-oxo-3H,4H-pyrido[2,3-d]pyrimidin-2-yl]-2-(3,5-difluorophenyl)ethyl]-2-[(2S,4R)-9-(difluoromethyl)-5,5-difluoro-7,8-diazatricyclo[4.3.0.0^2,^4]nona-1(6),8-dien-7-yl]acetamide], for which the pEC50 in data set [1] is 10.62. The CC50 at 4 days in data set [2] was greater than 50 nM.

`CS(=O)(=O)Nc1nn(CCN2CCCC(F)(F)C2)c2c(-n3c([C@H](Cc4cc(F)cc(F)c4)NC(=O)Cn4nc(C(F)F)c5c4C(F)(F)[C@@H]4C[C@H]54)nc4nc(C5CCC(F)(F)CC5)ccc4c3=O)ccc(Cl)c12` (atropisomer, axis not shown; (P)) [Example 168, N-[(1S)-1-[(3P)-3-{4-chloro-1-[2-(3,3-difluoropiperidin-1-yl)ethyl]-3-methanesulfonamido-1H-indazol-7-yl}-7-(4,4-difluorocyclohexyl)-4-oxo-3H,4H-pyrido[2,3-d]pyrimidin-2-yl]-2-(3,5-difluorophenyl)ethyl]-2-[(2S,4R)-9-(difluoromethyl)-5,5-difluoro-7,8-diazatricyclo[4.3.0.0^2,^4]nona-1(6),8-dien-7-yl]acetamide]: in data set [1], the pEC50 was 10.74. For the same compound, in data set [2], the CC50 at 4 days is greater than 50 nM.

Take `CS(=O)(=O)Nc1nn(CCN2CCC3(CC2)COC3)c2c(-n3c([C@H](Cc4cc(F)cc(F)c4)NC(=O)Cn4nc(C(F)F)c5c4C(F)(F)[C@@H]4C[C@H]54)nc4nc(C5CCC(F)(F)CC5)ccc4c3=O)ccc(Cl)c12` (atropisomer, axis not shown; (P)) [Example 170, N-[(1S)-1-[(3P)-3-[4-chloro-3-methanesulfonamido-1-(2-{2-oxa-7-azaspiro[3.5]nonan-7-yl}ethyl)-1H-indazol-7-yl]-7-(4,4-difluorocyclohexyl)-4-oxo-3H,4H-pyrido[2,3-d]pyrimidin-2-yl]-2-(3,5-difluorophenyl)ethyl]-2-[(2S,4R)-9-(difluoromethyl)-5,5-difluoro-7,8-diazatricyclo[4.3.0.0^2,^4]nona-1(6),8-dien-7-yl]acetamide]: in data set [1], the negative-log EC50 (pEC50) is 10.49. The CC50 at 4 days in data set [2] is greater than 50 nM.

Turning to `CS(=O)(=O)Nc1nn(CCN2CCOC3(CC3)C2)c2c(-n3c([C@H](Cc4cc(F)cc(F)c4)NC(=O)Cn4nc(C(F)F)c5c4C(F)(F)[C@@H]4C[C@H]54)nc4nc(C5CCC(F)(F)CC5)ccc4c3=O)ccc(Cl)c12` (atropisomer, axis not shown; (P)) [Example 176, N-[(1S)-1-[(3P)-3-[4-chloro-3-methanesulfonamido-1-(2-{4-oxa-7-azaspiro[2.5]octan-7-yl}ethyl)-1H-indazol-7-yl]-7-(4,4-difluorocyclohexyl)-4-oxo-3H,4H-pyrido[2,3-d]pyrimidin-2-yl]-2-(3,5-difluorophenyl)ethyl]-2-[(2S,4R)-9-(difluoromethyl)-5,5-difluoro-7,8-diazatricyclo[4.3.0.0^2,^4]nona-1(6),8-dien-7-yl]acetamide], the pEC50 in data set [1] is 10.74. For the same compound, the CC50 at 4 days in data set [2] was greater than 50 nM.

`CC(C)S(=O)(=O)N1CCN(CCn2nc(NS(C)(=O)=O)c3c(Cl)ccc(-n4c([C@H](Cc5cc(F)cc(F)c5)NC(=O)Cn5nc(C(F)F)c6c5C(F)(F)[C@@H]5C[C@H]65)nc5nc(C6CCC(F)(F)CC6)ccc5c4=O)c32)CC1` (atropisomer, axis not shown; (P)) [Example 195, N-[(1S)-1-[(3P)-3-(4-chloro-3-methanesulfonamido-1-{2-[4-(propane-2-sulfonyl)piperazin-1-yl]ethyl}-1H-indazol-7-yl)-7-(4,4-difluorocyclohexyl)-4-oxo-3H,4H-pyrido[2,3-d]pyrimidin-2-yl]-2-(3,5-difluorophenyl)ethyl]-2-[(2S,4R)-9-(difluoromethyl)-5,5-difluoro-7,8-diazatricyclo[4.3.0.0^2,^4]nona-1(6),8-dien-7-yl]acetamide]: in data set [1], the pEC50 was 10.43. Also, the CC50 at 4 days in data set [2] was greater than 50 nM.

For `CS(=O)(=O)Nc1nn(CCN2CC[C@H](F)C2)c2c(-n3c([C@H](Cc4cc(F)cc(F)c4)NC(=O)Cn4nc(C(F)F)c5c4C(F)(F)[C@@H]4C[C@H]54)nc4nc(C5CCC(F)(F)CC5)ccc4c3=O)ccc(Cl)c12` (atropisomer, axis not shown; (P)) [Example 207, N-[(1S)-1-[(3P)-3-(4-chloro-1-{2-[(3S)-3-fluoropyrrolidin-1-yl]ethyl}-3-methanesulfonamido-1H-indazol-7-yl)-7-(4,4-difluorocyclohexyl)-4-oxo-3H,4H-pyrido[2,3-d]pyrimidin-2-yl]-2-(3,5-difluorophenyl)ethyl]-2-[(2S,4R)-9-(difluoromethyl)-5,5-difluoro-7,8-diazatricyclo[4.3.0.0^2,^4]nona-1(6),8-dien-7-yl]acetamide], the pEC50 in data set [1] is 10.89. The CC50 at 4 days in data set [2] was greater than 50 nM.
